Test results published in ChEMBL document CHEMBL1145390, “Synthesis and preliminary biological characterization of new semisynthetic derivatives of ramoplanin” (J Med Chem, 2007).
≈ marks a conversion by molar mass, not a printed value.

Legend:
[1] = system: Streptococcus pyogenes; test: Antibacterial activity against Streptococcus pyogenes C203 after 24 hrs by broth microdilution method; type: functional; conditions: C203, 24 h, read-out: MIC
[2] = system: Escherichia coli; test: Antibacterial activity against Escherichia coli SKF-12140 after 24 hrs by broth microdilution method; type: functional; conditions: read-out: MIC
[3] = system: Enterococcus faecium; test: Antibacterial activity against Enterococcus faecium after 24 hrs by broth microdilution method; type: functional; conditions: read-out: MIC
[4] = system: Enterococcus faecium; test: Antibacterial activity against vancomycin A-resistant Enterococcus faecium clinical isolate after 24 hrs by broth microdilution method; type: functional; conditions: read-out: MIC
[5] = Toxicity assessed as hemolysis in erythrocytes at 180 mg/L; type: cell-based, Erythrocyte; conditions: human, erythrocytes; read-out: Activity
[6] = system: Staphylococcus aureus; test: Antibacterial activity against methicillin-resistant Staphylococcus aureus clinical isolate after 24 hrs by broth microdilution method; type: functional; conditions: read-out: MIC
[7] = system: Enterococcus faecalis; test: Antibacterial activity against vancomycin A-resistant Enterococcus faecalis after 24 hrs by broth microdilution method; type: functional; conditions: read-out: MIC
[8] = system: Staphylococcus aureus; test: Antibacterial activity against vancomycin-intermediate resistant Staphylococcus aureus clinical isolate after 24 hrs by broth microdilution method; type: functional
[9] = system: Enterococcus faecalis; test: Antibacterial activity against Enterococcus faecalis after 24 hrs by broth microdilution method; type: functional; conditions: read-out: MIC
[10] = system: Staphylococcus aureus; test: Antibacterial activity against Staphylococcus aureus Smith after 24 hrs by broth microdilution method; type: functional; conditions: read-out: MIC
[11] = system: Candida albicans; test: Antifungal activity against Candida albicans SKF-2270 after 24 hrs by broth microdilution method; type: functional; conditions: read-out: MIC
[12] = system: Staphylococcus aureus; test: Antibacterial activity against methicillin-resistant and vancomycin-intermediate resistant Staphylococcus aureus clinical isolate after 24 hrs by broth microdilution method; type: functional; conditions: read-out: MIC
[13] = Toxicity assessed as hemolysis in erythrocytes at 90 mg/L; type: cell-based, Erythrocyte; conditions: human, erythrocytes; read-out: Activity

Compound | MIC [1] [µg/mL] | MIC [2] [µg/mL] | MIC [3] [µg/mL] | MIC [4] [µg/mL] | hemolysis at 180 mg/L [5] [%] | MIC [6] [µg/mL] | MIC [7] [µg/mL] | MIC [8] [µg/mL] | MIC [9] [µg/mL] | MIC [10] [µg/mL] | MIC [11] [µg/mL] | MIC [12] [µg/mL] | hemolysis at 90 mg/L [13] [%]
CCc1ccc(C(=O)N[C@@H](CC(N)=O)C(=O)NC[C@@H]2C(=O)N[C@H](c3ccc(O)cc3)C(=O)N[C@H](CCCN)C(=O)N[C@H](C(C)C)C(=O)N[C@@H](c3ccc(O)cc3)C(=O)N[C@H](c3ccc(O)cc3)C(=O)N[C@@H]([C@@H](C)O)C(=O)N[C@@H](Cc3ccccc3)C(=O)N[C@H](CCCN)C(=O)N[C@@H](c3ccc(O[C@H]4O[C@H](CO)[C@@H](O)[C@H](O)[C@@H]4O[C@H]4O[C@H](CO)[C@@H](O)[C@H](O)[C@@H]4O)cc3)C(=O)N[C@H]([C@@H](C)O)C(=O)N[C@@H](c3ccc(O)cc3)C(=O)NCC(=O)N[C@@H](CC(C)C)C(=O)N[C@H](C)C(=O)N[C@@H](c3ccc(O)c(Cl)c3)C(=O)O[C@@H]2C(N)=O)cc1 | < 0.03 | > 32 | 1 (≈ 0.39 µM) | 1 (≈ 0.39 µM) | 62 | 1 (≈ 0.39 µM) | 1 (≈ 0.39 µM) | > 32 | 1 (≈ 0.39 µM) | 0.5 (≈ 0.195 µM) | > 32 | 4 (≈ 1.56 µM) | 36
CCCCOc1ccc(C(=O)N[C@@H](CC(N)=O)C(=O)NC[C@@H]2C(=O)N[C@H](c3ccc(O)cc3)C(=O)N[C@H](CCCN)C(=O)N[C@H](C(C)C)C(=O)N[C@@H](c3ccc(O)cc3)C(=O)N[C@H](c3ccc(O)cc3)C(=O)N[C@@H]([C@@H](C)O)C(=O)N[C@@H](Cc3ccccc3)C(=O)N[C@H](CCCN)C(=O)N[C@@H](c3ccc(O[C@H]4O[C@H](CO)[C@@H](O)[C@H](O)[C@@H]4O[C@H]4O[C@H](CO)[C@@H](O)[C@H](O)[C@@H]4O)cc3)C(=O)N[C@H]([C@@H](C)O)C(=O)N[C@@H](c3ccc(O)cc3)C(=O)NCC(=O)N[C@@H](CC(C)C)C(=O)N[C@H](C)C(=O)N[C@@H](c3ccc(O)c(Cl)c3)C(=O)O[C@@H]2C(N)=O)cc1 | 0.125 (≈ 0.048 µM) | > 32 | 0.25 (≈ 0.0959 µM) | 0.25 (≈ 0.0959 µM) | 5 | 0.5 (≈ 0.192 µM) | 0.25 (≈ 0.0959 µM) | 4 (≈ 1.53 µM) | 0.25 (≈ 0.0959 µM) | 0.25 (≈ 0.0959 µM) | > 32 | 4 (≈ 1.53 µM) | 0
COc1ccc(CC(=O)N[C@@H](CC(N)=O)C(=O)NC[C@@H]2C(=O)N[C@H](c3ccc(O)cc3)C(=O)N[C@H](CCCN)C(=O)N[C@H](C(C)C)C(=O)N[C@@H](c3ccc(O)cc3)C(=O)N[C@H](c3ccc(O)cc3)C(=O)N[C@@H]([C@@H](C)O)C(=O)N[C@@H](Cc3ccccc3)C(=O)N[C@H](CCCN)C(=O)N[C@@H](c3ccc(O[C@H]4O[C@H](CO)[C@@H](O)[C@H](O)[C@@H]4O[C@H]4O[C@H](CO)[C@@H](O)[C@H](O)[C@@H]4O)cc3)C(=O)N[C@H]([C@@H](C)O)C(=O)N[C@@H](c3ccc(O)cc3)C(=O)NCC(=O)N[C@@H](CC(C)C)C(=O)N[C@H](C)C(=O)N[C@@H](c3ccc(O)c(Cl)c3)C(=O)O[C@@H]2C(N)=O)cc1 | 0.125 (≈ 0.0485 µM) | > 32 | 16 (≈ 6.21 µM) | 8 (≈ 3.1 µM) | 0 | 8 (≈ 3.1 µM) | 8 (≈ 3.1 µM) | 32 (≈ 12.4 µM) | 8 (≈ 3.1 µM) | 8 (≈ 3.1 µM) | > 32 | 32 (≈ 12.4 µM) | 0
